The subject of series [1] is amastigotes of L. donovani. More on the design: method as in PMID 30908481. As to conditions: cited from earlier work.
The subject of series [2] is L. donovani promastigotes (MHOM/NP/02/BPK282/0cl4). The series is described as follows: Promastigote growth inhibition assay (alamarBlue). The class given is cell-based. As to conditions: Leishmania donovani, HOMEM with 10% FBS. In general terms: Alamar Blue is a resazurin reagent that responds to reducing activity.
Series [3] is described as follows: Cytotoxicity test on THP-1 cells (alamarBlue). The class given is cell-based. Particulars: human, THP-1 cells (acute monocytic leukemia cell line); CSV supplement; read-out: CC50 against human acute monocytic leukemia cell line (THP-1). Here is the method:
(§1) Vero cells (kidney of African green monkey epithelial cell line) were cultured at 37 °C in the MEM liquid medium supplemented with 10% FBS (EuroClone SpA), 1% levoglutamine (EuroClone SpA), and 1% penicillin–streptomycin (EuroClone SpA). THP-1 cells (human leukemia monocytic cell line) were cultured at 37 °C in the RPMI 1640 (EuroClone SpA) liquid medium supplemented with 10% FBS (EuroClone SpA), 1% levoglutamine (EuroClone SpA), 1% penicillin–streptomycin, and mercaptoethanol (Gibco) 50 μM.
(§2) The cytotoxicity of the compounds was determined using mammalian kidney epithelial cells (Vero cell line) and human acute monocytic leukemia cell line (THP-1). Cells were seeded (10^5 cells mL^–1) on 96-well plates with the complete MEM medium and incubated with test compounds at 37 °C in a 5% CO2 incubator. After 72 h of incubation, 20 μL of the alamarBlue reagent was added to each well and incubated at 37 °C for 24 h. Reduction of resazurin to resorufin was evaluated after 24 h by absorbance measurement at the Multiskan ascent plate reader (Thermo Fisher Scientific Inc.,) at 550 and 630 nm. […] Each experiment was performed in duplicate.
Cytotoxicity in THP-1 cell line
We performed additional cytotoxicity tests employing THP-1 cell line. We also calculated the
corresponding selectivity indexes, as the ratio between CC50 of THP-1 cell line and IC50 on amastigotes
THP-1 cells than on VERO cells; thus showing a not significant variance of selectivity index.
Table S3. Inhibitory activity of tetrahydropyrans 3 and endoperoxides 2 against amastigotes of L.
donovani, cytotoxicity in human acute monocytic leukemia cell line (THP-1) and selectivity index (SI).
Tetrahydropyran IC50 CC50 Endoperoxide IC50 CC50
a (µM)b (µM)c a (µM)b (µM)c
a Compounds tested as racemates. b IC50 represents the concentration of a compound that causes 50% growth inhibition.
Results represent the mean (± standard deviation, SD) of three independent experiments performed in duplicate. c CC50
represents 50% cytotoxic concentration on THP-1 cells. d Selectivity index (SI) = CC50/IC50. […]

For series [4], the system named is L. donovani promastigotes. The series is described as follows: Promastigote growth inhibition in the presence of an iron chelator (DFO or DFP), isobologram. The format is cell-based, Leishmania donovani. The protocol: At first, we determined IC50 and CC50 values of the iron chelator DFO (187 and >400 μM, respectively). Then, the effect of the iron chelator presence on the bioactivity of the two compounds was studied by coincubating 2a and 3a with DFO at different concentrations. The variation of IC50 of the compounds in relation to the different doses of DFO was determined by the alamarBlue assay (Table 3), and the isobole technique was employed to depict the interactions of 2a and 3a with DFO (Figure 6).
The isobole technique was used for depicting synergistic or antagonistic interaction between the iron chelator and the two compounds on the parasite growth (Figure 6). Combinations are expressed as the sum of the fractional inhibitory concentrations (ΣFIC), and FIC values are defined as synergism (<0.5), antagonism (>4.0), and additivity (no interaction). The strength of synergism (or antagonism) is indicated by the degree of deviation from the line of additivity.
[…]. Each compound was added using a concentration range including the IC50 of each compound. Each experiment was performed in duplicate. The viability of the parasites was determined by the alamarBlue assay. The fractional inhibitory concentration (FIC; FIC = IC50 of the drug in the combination/IC50 of the drug when tested alone) of each compound was calculated and plotted as an isobologram.

Series [5] concerns L. donovani promastigotes (MHOM/NP/02/BPK282/0cl4). The series is described as follows: Promastigote growth inhibition assay (alamarBlue). The format is cell-based, Leishmania donovani. As to conditions: for IC50: Leishmania donovani, 72 h, alamarBlue, HOMEM 20% FBS, compounds as racemates, read-out: IC50 (concentration causing 50% growth inhibition) against promastigotes of L. donovani; for Selectivity index (SI) = CC50/IC50: Vero CC50 / IC50 on promastigotes. Here is the method: The bioactivity of the new tetrahydropyrans 3 was initially evaluated against the extracellular promastigote forms of L. donovani (MHOM/NP/02/BPK282/0cl4) as the reference strain, indicative of the leishmaniasis in the Old World. The results were expressed as IC50, i.e., the concentration of the product required to inhibit the parasite growth by 50%. When a compound could inhibit the promastigote growth, its cytotoxicity was also evaluated on Vero cells (Table 1) and on THP-1 cells (see the Supporting Information, Table S3) and the corresponding selectivity indexes (SIs) were calculated. The performance of each tetrahydropyran 3 was compared with that of the corresponding endoperoxide 2 (Table 1).
Promastigotes of a L. donovani reference strain (MHOM/NP/02/BPK282/0cl4) were maintained at 26 °C in a liquid custom-made medium, HOMEM Cat. no: 1140-082 (Gibco Thermo Fisher Scientific Inc., Waltham, USA), complete composition: S-MEM (Eagle) 1 × 1 liter pack, glucose (1–2 g), sodium bicarbonate (0.3 g), sodium pyruvate (0.11 g), p-aminobenzoic acid (1 mg), biotin (0.1 mg), HEPES (4.77–5.96 g), MEM amino acids (10 mL), MEM nonessential amino acids (10 mL), pH 7.5–7.6, supplemented with 20% fetal bovine serum (FBS, EuroClone SpA, Milan, Italy)[123] and 1% penicillin–streptomycin (EuroClone SpA).
To evaluate the efficacy of the compounds on the extracellular forms of L. donovani, promastigotes in their late log/stationary phase were seeded with the complete HOMEM medium at 10^6 cells mL^–1 in 96-well plates and incubated with tested compounds at a range concentration of 600–1.6 μM in a 26 °C incubator for 72 h. The antileishmanial drug amphotericin B was used as the positive control, and untreated promastigotes were the negative control. Each experiment was performed in duplicate. Stock solution of the compounds was 8 mM in DMSO. […] The alamarBlue assay includes a colorimetric growth indicator based on detection of metabolic activity. Specifically, the system incorporates an oxidation–reduction (REDOX) indicator that changes color in response to chemical reduction of the growth medium resulting from cell growth. The method monitors the reducing environment of proliferating cells; the cell-permeable resazurin is added (nonfluorescent form, blue color) and, upon entering cells, is reduced to resorufin (fluorescent form, red color) as a result of cellular metabolic activity. Evaluation was performed by adding 20 μL of alamarBlue and incubating at 26 °C for 24 h. The reducing environment was evaluated after 24 h by absorbance measurement at the Multiskan ascent plate reader (Thermo Fisher Scientific Inc.) at 550 and 630 nm.

Series [6] concerns intramacrophage amastigotes of L. donovani. The series can be described thus: Amastigote growth inhibition assay in infected THP-1 cells (Giemsa, infectivity index). Particulars: for IC50: Leishmania donovani, intracellular amastigotes in THP-1, 72 h, read-out: IC50 against amastigotes of L. donovani. The class given is cell-based, Leishmania donovani. Here is the method: To evaluate the efficacy of the compounds on the intracellular form of L. donovani, human acute monocytic leukemia cell line (THP-1) was infected with L. donovani promastigotes. Cells were harvested and seeded in a 96-well plate (10^5 cells mL^–1) in the complete RPMI 1640 medium, and PMA (0.1 μM, Cayman Chemical Company, Ann Arbor, Michigan, USA) was added for obtaining maturation and cell adherence. Cells were incubated at 37 °C in a 5% CO2 incubator. After 48 h, the medium was replaced with the fresh medium containing stationary-phase promastigotes that were then phagocyted by monocytic cells and transformed into intracellular amastigotes. After 24 h of incubation, newly synthesized compounds were added and the plates were incubated at 37 °C in a 5% CO2 incubator for 72 h. After incubation, wells were washed, fixed, and stained with Giemsa. Staining was detected using a Nikon Eclipse E200 light microscope (Nikon, Tokyo, Japan). The infectivity index (% of infected macrophages × average number of amastigotes per macrophage) was determined by counting at least 100 cells in duplicate cultures.

Series [7] in a line: Cytotoxicity test on Vero cells (alamarBlue). The class given is cell-based, African green monkey. Here is the method: as §1, §2
Series [8] concerns promastigotes of L. donovani. Also on record: method as in PMID 30878827. Particulars: in vitro; cited from earlier work.
For series [9], the system named is promastigotes of Leishmania donovani strains. More on the design: method as in earlier work. Particulars: Figure 1, cited from earlier work; for IC50: read-out: IC50 on promastigotes of L. donovani strains.
Another series concerns Leishmania promastigotes. More on the design: method as in PMID 27867026, PMID 17339374. Particulars: Figure 3; cited from earlier work.
Series [10] concerns intracellular amastigotes of L. infantum. Also on record: method as in PMID 26014947. As to conditions: in vitro; cited from earlier work.
Series [11] has as its system promastigotes of L. infantum. More on the design: method as in PMID 26014947. Particulars: in vitro; cited from earlier work.
The mark [12] stands for this setting: Vero CC50 / IC50 on amastigotes.

Values joined by “and” are separate entries in the source; they are usually repeats but may differ in a detail not shown here. Equal values may be shown once. Read-outs that look alike come from different tables or passages of the source. Where only a bound is given, the exact number is not on record here.

Consider “6-(1,2,6,7-tetraoxaspiro[7.11]nonadec-4-yl) hexan-1-ol [N-251]”, for which the IC50 in [1] is 6.7 µM.
For the molecule `CO[C@]1(C)OOC(c2ccccc2)(c2ccccc2)C[C@@H]1CNCCCn1ccnc1` [2b], the IC50 in series [2] was determined as 1.2 µM; in [4] (Leishmania donovani, no DFO, read-out: IC50 against promastigotes, absence of DFO (Table S4)), 7.5 µM; in series [5] it was 6.3 ± 1.1 µM; in series [6], 5 ± 1 µM. The CC50 at 72 h in [3] was 52.5 µM; in [7] (chlorocebus sabaeus, Vero cells (kidney epithelial cell line), 72 h, alamarBlue, read-out: CC50 (50% cytotoxic concentration) on Vero cells) it was 49 ± 2.7 µM. In addition, in series [4] (synergism <0.5, antagonism >4.0, else additivity), the “Interaction with the iron chelator DFO (isobologram, ΣFIC)” value was “additive effects”. In addition, the entries for the “Selectivity index (SI) = CC50/IC50” value in [5], in series [6] (THP-1 CC50 / IC50 on amastigotes) and in [6] (setting [12]) were 7.7, 10.5 and 9.8, respectively.
As for `CCCCC1(CCCC)CC(CNCCCn2ccnc2)C(C)(OC)OO1` (stereo not drawn) [3,4-cis 2a], the IC50 in [8] was 5.5 µM.
`CCCCC1(CCCC)CC(CNCCCn2ccnc2)C(C)(OC)OO1` (stereo not drawn) [3,4-trans 2a]: in [8], the IC50 is 4 µM.
In the case of `C[C@@H]1[C@H](O)[C@@H](C)/C=C/C=C/C=C/C=C/C=C/C=C/C=C/[C@H](O[C@@H]2O[C@H](C)[C@@H](O)[C@H](N)[C@@H]2O)C[C@@H]2O[C@](O)(C[C@@H](O)C[C@@H](O)[C@H](O)CC[C@@H](O)C[C@@H](O)CC(=O)O[C@H]1C)C[C@H](O)[C@H]2C(=O)O` [Amphotericin B, reference compound], the figures for the IC50 in series [9], in series [5] and in [6] were 0.03 to 2.8 µM, 0.3 µM and 0.07 µM, respectively. For the same molecule, the figures for the “Selectivity index (SI) = CC50/IC50” value in series [5] and in series [6] (setting [12]) were 666.7 and 2857.1, respectively. Also, the CC50 at 72 h in series [7] (African green monkey) was 200 µM.
Regarding `C[C@@H]1CC[C@H]2[C@@H](C)C(=O)O[C@@H]3O[C@@]4(C)CC[C@@H]1[C@]32OO4` [Artemisinin, reference compound], the IC50 in series [5] was above 40 µM; with Leishmania promastigotes, 30.8 µM; in series [6] it was above 40 µM.
On to `COc1ccc(N[C@@]2(C(F)(F)F)O[C@@H]3C[C@@]4(C)C[C@H]5[C@H](C)CC[C@@H]([C@H]2C)[C@@]35OO4)cc1` [BB201], for which the IC50 in the series on Leishmania promastigotes was 0.38 to 1.5 µM.
Regarding `C=CCO[C@@]1(C(F)(F)F)O[C@@H]2C[C@@]3(C)C[C@H]4[C@H](C)CC[C@@H]([C@H]1C)[C@@]24OO3` [BB241], the IC50 in the series with Leishmania promastigotes was 1.6 to 6.3 µM.
Take `O=C1CCC2(CC1)OOC1(O2)C2CC3CC(C2)CC1C3` (stereo not drawn) [LC50]: the IC50 in series [10] is 79.8 to 108 µM.
`NCC1CC[C@]2(CC1)OO[C@]1(O2)C2CC3CC(C2)CC1C3` (stereo partly drawn) [LC95]: the IC50 in [10] is 79.8 to 108 µM; in [11], 3.5 µM and 3.5 to 9.4 µM.
Turning to `CCCCCCCCCCCCCCCCOP(=O)([O-])OCC[N+](C)(C)C` [Miltefosine], the IC50 in series [9] was 1.9 to 68.1 µM.
For the molecule `NC[C@@H]1O[C@H](O[C@H]2[C@@H](O)[C@H](O[C@@H]3[C@@H](O)[C@H](N)C[C@H](N)[C@H]3O[C@H]3O[C@H](CO)[C@@H](O)[C@H](O)[C@H]3N)O[C@@H]2CO)[C@H](N)[C@@H](O)[C@@H]1O` [Paromomycin], the IC50 in [9] is 19.7 to 28.1 µM.
In the case of `O.O.O.O.O.O.O.O.O.O=C([O-])[C@@H]1[O][Sb](=[O])([O][Sb]2(=[O])[O][C@H]([C@H](O)CO)[C@H](O)[C@H](C(=O)[O-])[O]2)[O][C@H]([C@H](O)CO)[C@@H]1O.[Na+].[Na+].[Na+]` (stereo partly drawn) [Sodium stibogluconate], in series [9], the “IC50 on promastigotes of L. donovani strains” value was 8.8 to 22.0 µg/mL.

Values taken from PMC8018184, “Evaluation of the Pharmacophoric Role of the O–O Bond in Synthetic Antileishmanial Compounds: Comparison between 1,2-Dioxanes and Tetrahydropyrans” (Journal of Medicinal Chemistry, 2020).
